Experimental data reported in patent US11649222B2, “Compounds” (UNIVERSITETET I OSLO, priority 2016, dated 2023).
Like-named read-outs stand apart in the source and are kept apart here.

System: human hepG2 cells
Test: In vitro toxicity in human hepG2 cells (AlamarBlue viability)
Format: cell-based
Conditions: for IC50: human hepG2 cells
In short: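 HepG2 cells at 20,000/well adhered overnight, then were exposed to compounds at 1 to 1×10^−6 mM (DMSO ≤1%) for 24 h at 37 °C. Viability was read with AlamarBlue (10% final) after a further 4 h at 37 °C.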

Q: CN(C[C@H](O)[C@@H](O)[C@H](O)[C@H](O)CO)C(=O)c1ccc(CN(Cc2ccccn2)Cc2ccccn2)nc1 [Example 26, 6-((bis(pyridin-2-ylmethyl)amino)methyl)-N-methyl-N-((2S,3R,4R,5R)-2,3,4,5,6-pentahydroxyhexyl)nicotinamide] was tested. Which “EC50 in hepG2 cells” value (hepG2 cells) did it give?
A: non-toxic

Q: What about the IC50 (24 hours, AlamarBlue, 8 replicates, read-out: IC50) of the same molecule?
A: > 1000 µM

Q: And the IC50 (read-out: IC50h)?
A: ≥ 116 µM
